From PubChem BioAssay AID330 (DTP/NCI, 2004)
“And” between values parts separate entries of the source, which are not always exact repeats. Equal values may be shown once. Toxic doses and inconclusive results are not listed. Square brackets hold non-standard residues; d marks the D form. Peptide text beside a SMILES is read from it. ξ: configuration not given here. Ac5c = NC1(C(=O)O)CCCC1; ξS = NC(CO)C(=O)O

System: P388 leukemia ip, CD2F1 mice, survival T/C
Experiment: NCI In Vivo Anticancer Drug Screen. Data for tumor model P388 Leukemia (intraperitoneal) in CD2F1 (CDF1) mice
Settings: endpoint: median survival time, higher = longer survival
In short: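 Mice carrying the transplanted tumor received test compound or vehicle. Survival was recorded in each group, and the value is the treated-group measurement divided by that of the vehicle-treated control group.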

[1] = dose: 100.0 mg/kg/injection, schedule: Q04DX003 (ip), vehicle: saline
[2] = dose: 200.0 mg/kg/injection, schedule: Q04DX003 (ip), vehicle: saline
[3] = dose: 400.0 mg/kg/injection, schedule: Q04DX003 (ip), vehicle: saline
[4] = dose: 60.0 mg/kg/injection, schedule: Q01DX005 (ip), vehicle: saline with Tween-80
[5] = dose: 120.0 mg/kg/injection, schedule: Q01DX005 (ip), vehicle: saline with Tween-80
[6] = dose: 50.0 mg/kg/injection, schedule: Q01DX005 (ip), vehicle: saline with Tween-80
[7] = dose: 100.0 mg/kg/injection, schedule: Q01DX005 (ip), vehicle: saline with Tween-80
[8] = dose: 200.0 mg/kg/injection, schedule: Q01DX005 (ip), vehicle: saline with Tween-80
[9] = dose: 50.0 mg/kg/injection, schedule: Q01DX009 (ip), vehicle: saline
[10] = dose: 100.0 mg/kg/injection, schedule: Q01DX009 (ip), vehicle: saline
[11] = dose: 200.0 mg/kg/injection, schedule: Q01DX009 (ip), vehicle: saline
[12] = dose: 25.0 mg/kg/injection, schedule: Q01DX009 (ip), vehicle: saline with Tween-80
[13] = dose: 50.0 mg/kg/injection, schedule: Q01DX009 (ip), vehicle: saline with Tween-80
[14] = dose: 100.0 mg/kg/injection, schedule: Q01DX009 (ip), vehicle: saline with Tween-80
[15] = dose: 200.0 mg/kg/injection, schedule: Q01DX009 (ip), vehicle: saline with Tween-80
[16] = dose: 12.5 mg/kg/injection, schedule: Q01DX005 (ip), vehicle: Klucel (hydroxypropylcellulose) (HPC)
[17] = dose: 25.0 mg/kg/injection, schedule: Q01DX005 (ip), vehicle: Klucel (hydroxypropylcellulose) (HPC)
[18] = dose: 50.0 mg/kg/injection, schedule: Q01DX005 (ip), vehicle: Klucel (hydroxypropylcellulose) (HPC)
[19] = dose: 100.0 mg/kg/injection, schedule: Q01DX005 (ip), vehicle: Klucel (hydroxypropylcellulose) (HPC)
[20] = dose: 50.0 mg/kg/injection, schedule: Q01DX009 (ip), vehicle: Klucel (hydroxypropylcellulose) (HPC)
[21] = dose: 25.0 mg/kg/injection, schedule: Q04DX002 (ip), vehicle: saline with Tween-80
[22] = dose: 50.0 mg/kg/injection, schedule: Q04DX002 (ip), vehicle: saline with Tween-80
[23] = dose: 200.0 mg/kg/injection, schedule: Q01DX005 (ip), vehicle: Klucel (hydroxypropylcellulose) (HPC)
[24] = dose: 50.0 mg/kg/injection, schedule: Q01DX005 (ip), vehicle: saline
[25] = dose: 100.0 mg/kg/injection, schedule: Q01DX005 (ip), vehicle: saline
[26] = dose: 200.0 mg/kg/injection, schedule: Q01DX005 (ip), vehicle: saline
[27] = dose: 12.5 mg/kg/injection, schedule: Q01DX009 (ip), vehicle: saline with Tween-80
[28] = dose: 100.0 mg/kg/injection, schedule: Q04DX003 (ip), vehicle: saline with Tween-80
[29] = dose: 200.0 mg/kg/injection, schedule: Q04DX003 (ip), vehicle: saline with Tween-80
[30] = dose: 400.0 mg/kg/injection, schedule: Q04DX003 (ip), vehicle: saline with Tween-80

CSC(=S)c1ccc(NS(=O)(=O)c2ccccc2)cc1
T/C [1]: 100 % of control
T/C [2]: 106 % of control
T/C [3]: 105 % of control

Nc1ccccc1C(=O)CCc1ccccc1
T/C [4]: 100 % of control
T/C [5]: 99 % of control
T/C (dose: 240.0 mg/kg/injection, schedule: Q01DX005 (ip), vehicle: saline with Tween-80): 97 % of control

COC(=O)C1(c2ccccc2)N=NN=C1N(C)C (stereo unspecified)
T/C [6]: 98 % of control
T/C [7]: 106 % of control
T/C [8]: 110 % of control

CC(=O)NC1CCC(C2CCCCC2)CC1C1CCCCC1 (stereo unspecified)
T/C [6]: 107 % of control
T/C [7]: 98 % of control
T/C [8]: 102 % of control

CCOC(=O)NC(NC(=O)OCC)c1cccc(F)c1
T/C [1]: 99 % of control
T/C [2]: 99 % of control
T/C [3]: 93 % of control

N#C[S][Hg][c]1ccccc1
T/C [4]: 106 % of control
T/C [5]: 98 % of control

Cc1cc2nc(Nc3nc(C)c(C)c(=O)[nH]3)[nH]c2cc1C
T/C [9]: 108 % of control
T/C [10]: 102 % of control
T/C [11]: 90 % of control

CCCCCCCCCCCCCCCCCCCCCCCCCCCCCCO
T/C [12]: 86 % of control
T/C [13]: 101 % of control
T/C [14]: 96 % of control
T/C [15]: 92 % of control

O=CNCNC=O
T/C [9]: 95 % of control
T/C [10]: 90 % of control
T/C [11]: 99 % of control

O=C1OC(=O)C2C3C=CC(C4C=C(c5ccccc5)C43)C12 (stereo unspecified)
T/C [9]: 106 % of control
T/C [10]: 92 % of control
T/C [11]: 107 % of control

COc1cccc2c1C(=O)c1c(O)c3c(c(O)c1C2=O)CC(O)(C(=O)COC(C)=O)CC3OC1CC(NC(C)=O)C(O)C(C)O1 (stereo unspecified)
T/C (dose: 0.78 mg/kg/injection, schedule: Q01DX009 (ip), vehicle: other): 122 % of control
T/C (dose: 3.13 mg/kg/injection, schedule: Q01DX009 (ip), vehicle: other): 120 % of control

Cc1cccc(C2N=C3Oc4ccccc4C=C3C(=O)N2)c1 (stereo unspecified)
T/C (dose: 6.25 mg/kg/injection, schedule: Q01DX005 (ip), vehicle: Klucel (hydroxypropylcellulose) (HPC)): 96 % of control
T/C [16]: 95 % of control
T/C [17]: 96 % of control
T/C [18]: 99 % of control
T/C [19]: 105 % of control

C=CCO[C@H]1CO[C@H]2[C@@H]1OC[C@H]2OCC=C
T/C [6]: 96 % of control
T/C [7]: 97 % of control
T/C [8]: 99 % of control

COC(=O)c1cc(NS(=O)(=O)N(C)C)cc(C(=O)OC)c1
T/C [20]: 103 % of control
T/C (dose: 100.0 mg/kg/injection, schedule: Q01DX009 (ip), vehicle: Klucel (hydroxypropylcellulose) (HPC)): 103 % of control
T/C (dose: 200.0 mg/kg/injection, schedule: Q01DX009 (ip), vehicle: Klucel (hydroxypropylcellulose) (HPC)): 103 % of control

c1ccc2c(NCC3CCNCC3)c3ccccc3nc2c1
T/C [21]: 124 % of control
T/C [22]: 112 % of control

OCC(O)CNc1ncnc2cc(Cl)ccc12 (stereo unspecified)
T/C [17]: 100 % of control
T/C [18]: 96 % of control
T/C [19]: 102 % of control
T/C [23]: 105 % of control

COc1cc2c(c(OC)c1OC)-c1ccc(OC)c(=O)cc1C(N(C)C(=O)CO)CC2 (stereo unspecified)
T/C (dose: 0.16 mg/kg/injection, schedule: Q01DX009 (ip), vehicle: Klucel (hydroxypropylcellulose) (HPC)): 120 % of control and 123 % of control
T/C (dose: 0.31 mg/kg/injection, schedule: Q01DX009 (ip), vehicle: Klucel (hydroxypropylcellulose) (HPC)): 155 % of control
T/C (dose: 0.62 mg/kg/injection, schedule: Q01DX009 (ip), vehicle: Klucel (hydroxypropylcellulose) (HPC)): 166 % of control
T/C (dose: 0.62 mg/kg/injection, schedule: Q01DX009 (ip), vehicle: saline): 189 % of control
T/C (dose: 1.25 mg/kg/injection, schedule: Q01DX009 (ip), vehicle: Klucel (hydroxypropylcellulose) (HPC)): 112 % of control and 212 % of control

COC1=CCCC(C(C)=O)C1Sc1ccccc1 (stereo unspecified)
T/C (dose: 100.0 mg/kg/injection, schedule: Q01DX001 (ip), vehicle: saline): 100 % of control
T/C (dose: 200.0 mg/kg/injection, schedule: Q01DX001 (ip), vehicle: saline): 102 % of control
T/C (dose: 400.0 mg/kg/injection, schedule: Q01DX001 (ip), vehicle: saline): 100 % of control

COC(=O)C1C(Sc2ccccc2)CCN1C(C)=O (stereo unspecified)
T/C [24]: 88 % of control
T/C [25]: 88 % of control
T/C [26]: 88 % of control

O=C1C=CC(=O)C(C2OC(=O)C(Br)=C2Br)=C1 (stereo unspecified)
T/C (dose: 50.0 mg/kg/injection, schedule: Q01DX005 (ip), vehicle: distilled water + Tween-80): 114 % of control
T/C (dose: 100.0 mg/kg/injection, schedule: Q01DX005 (ip), vehicle: distilled water + Tween-80): 115 % of control

Cc1cc2c(=O)cc(-c3ccccc3)oc2c(C#N)c1C
T/C (dose: 60.0 mg/kg/injection, schedule: Q01DX005 (ip), vehicle: Klucel (hydroxypropylcellulose) (HPC)): 99 % of control
T/C (dose: 120.0 mg/kg/injection, schedule: Q01DX005 (ip), vehicle: Klucel (hydroxypropylcellulose) (HPC)): 94 % of control
T/C (dose: 240.0 mg/kg/injection, schedule: Q01DX005 (ip), vehicle: Klucel (hydroxypropylcellulose) (HPC)): 93 % of control

CCCCCCCCCCN(CCCCCCCCCC)C(C)C(=O)c1ccc2cc(Br)c3ccccc3c2c1 (stereo unspecified)
T/C [6]: 99 % of control
T/C [7]: 89 % of control
T/C [8]: 104 % of control

c1ccc2nc3c(nc2c1)[nH]c1ccccc13
T/C (dose: 6.25 mg/kg/injection, schedule: Q01DX009 (ip), vehicle: Klucel (hydroxypropylcellulose) (HPC)): 101 % of control
T/C (dose: 12.5 mg/kg/injection, schedule: Q01DX009 (ip), vehicle: Klucel (hydroxypropylcellulose) (HPC)): 95 % of control
T/C (dose: 25.0 mg/kg/injection, schedule: Q01DX009 (ip), vehicle: Klucel (hydroxypropylcellulose) (HPC)): 103 % of control
T/C [20]: 95 % of control

N#CCc1ccccc1-c1ccccc1
T/C [16]: 99 % of control
T/C [17]: 94 % of control
T/C [18]: 99 % of control

CCN(CC)C(=O)C1CCCCN1Cc1c[nH]c2ccccc12 (stereo unspecified)
T/C [27]: 104 % of control
T/C [12]: 109 % of control
T/C [13]: 101 % of control
T/C [14]: 99 % of control

CC(C)C([N+](C)(C)C)P(=O)([O-])O (stereo unspecified)
T/C [14]: 100 % of control
T/C [15]: 90 % of control

C[NH-].C[NH-].[Cl][Pt+2][Cl]
T/C (dose: 12.5 mg/kg/injection, schedule: Q01DX009 (ip), vehicle: saline): 113 % of control

CC(C)CC(NC(=O)C(C)N)C(N)=O (stereo unspecified)
T/C [24]: 99 % of control
T/C [25]: 103 % of control
T/C [26]: 96 % of control

Cc1ccc(OP2(=O)NC3CCCCC3N2)cc1 (stereo unspecified)
T/C [18]: 99 % of control
T/C [19]: 93 % of control
T/C [23]: 96 % of control

CC1(C)OC2C(CO)OC(n3ncc(=S)[nH]c3=O)C2O1 (stereo unspecified)
T/C [28]: 102 % of control
T/C [29]: 86 % of control
T/C [30]: 97 % of control

NC(CO)C(=O)NC1(C(=O)O)CCCC1 (stereo unspecified) (H-[ξS]-[Ac5c]-OH)
T/C [28]: 95 % of control
T/C [29]: 100 % of control
T/C [30]: 120 % of control

CC[C@H]1CN2CCc3cc(OC)c(OC)cc3[C@@H]2C[C@@H]1C[C@@H]1c2cc(OC)c(OC)cc2CCN1N=O
T/C (dose: 6.25 mg/kg/injection, schedule: Q01DX009 (ip), vehicle: saline with Tween-80): 96 % of control
T/C [27]: 99 % of control
T/C [12]: 107 % of control
T/C [13]: 100 % of control

S=C1SSC(=S)C1=C1C=CN(Cc2ccccc2)C=C1
T/C [21]: 102 % of control
T/C [22]: 99 % of control
T/C (dose: 100.0 mg/kg/injection, schedule: Q04DX002 (ip), vehicle: saline with Tween-80): 100 % of control
